EC50 data for six compounds are collected here from ChEMBL document CHEMBL1148087, “Structure and absolute configuration of palmonine F, a new eunicellin-based diterpene from the gorgonian Eunicella verrucosa” (1994).

SMILES strings stand for the structures. In brackets after ≈: the same amount, converted by molar mass.

What all share (type): functional
What all share (conditions): read-out: ED50 (the source's name)

The test system of assay [1] is SK-MEL-28. The experiment in a line: Cytotoxicity against human SK-MEL-28 cells.
The test system of assay [2] is P388. The experiment in a line: Cytotoxicity against mouse P388 cells.
Assay [3] relates to HT-29. The experiment in a line: Cytotoxicity against human HT-29 cells.
Assay [4] deals with A549. The experiment in a line: Cytotoxicity against human A549 cells.

On to `C=C1C[C@H]2O[C@H]([C@H]3[C@@H]2[C@](C)(OC(C)=O)CC[C@@H]3C(C)C)[C@](C)(OC(C)=O)CC[C@@H]1OC(C)=O` [PALMONINE B], for which the EC50 in assay [1] and in assay [2] was 5 µg/mL (≈ 10.8 µM) throughout.

Consider `CO[C@H]1CC[C@@](C)(OC(C)=O)[C@@H]2O[C@H](C[C@]1(C)O)[C@@H]1[C@H]2[C@@H](C(C)C)CC[C@@]1(C)O` [PALMONINE C], for which the EC50 in assay [1], in assay [3], in assay [2] and in assay [4] was above 10 µg/mL in each case.

As for `C=C1C[C@H]2O[C@H]([C@H]3[C@@H]2[C@](C)(OC(C)=O)CC[C@@H]3C(C)C)[C@](C)(OC(C)=O)CC[C@@H]1O` [PALMONINE F], the EC50 in assay [1], in assay [3], in assay [2] and in assay [4] was above 10 µg/mL each time.

For the compound `CO[C@H]1CC[C@@](C)(OC(C)=O)[C@@H]2O[C@H](C[C@]1(C)O)[C@@H]1[C@H]2[C@@H](C(C)C)CC[C@@]1(C)OC(C)=O` [PALMONINE A], the EC50 in assay [1], in assay [3], in assay [2] and in assay [4] was above 10 µg/mL throughout.

Regarding `CC(=O)O[C@]1(C)CC[C@H](C(C)C)[C@@H]2[C@H]1[C@H]1/C=C(/C)C(=O)CC[C@@](C)(OC(C)=O)[C@@H]2O1` [PALMONINE E], the EC50 in assay [1], in assay [3], in assay [2] and in assay [4] was above 10 µg/mL each time.

Turning to `C=C1C[C@H]2O[C@H]([C@H]3[C@@H]2[C@](C)(OC(C)=O)CC[C@@H]3C(C)C)[C@](C)(OC(C)=O)CCC1=O` [PALMONINE D], the EC50 in assay [1], in assay [3], in assay [2] and in assay [4] was above 10 µg/mL throughout.
